From US20260041774A1 (RepoCeuticals A/S, priority 2017, published 2026)
Read-outs that look alike come from different tables or passages of the source. One block for each molecule: values may come before it.

Experiments:
[1] = test system: oxidative damage in certain model systems; conditions: certain model systems (Oxenkrug 2005); cited from earlier work
[2] = Solubility of melatonin in aqueous solubilizer mixtures (overnight end-over-end rotation, filtration, HPLC); type: physicochemical; conditions: 20% (w/w) aqueous glycofurol, 25 °C, aqueous with cosolvent or surfactant or cyclodextrin, thermodynamic from solid
Protocol: Peaks were detected by UV absorption at 277 μm wavelength. […] To study the effect of adding DMSO to this medium, a medium consisting of 20% (w/w) glycofurol and 40% (w/w) DMSO in water was also prepared.

[3] = Experimental: The determination of what constitutes initial amount and final amount shall be made using the same experimental techniques. In the experiments presented below, initial and final amounts of degradation products were determined using HPLC as an exemplary measurement technique.
High pressure liquid chromatography (HPLC) elution profiles obtained from a 100×4.6 mm Phenomenex Kinetex column of XB-C18 silica (5 μm particle size) eluted with a linear gradient of solvent B (acetonitrile containing 0.1% v/v acetic acid) 10% to 50% in solvent A (water containing 0.1% v/v acetic acid) from 0.8 to 7.8 min, returning to 10% B at 8.8 min. Peaks were detected by UV absorption at […] wavelength. Overloading sample sizes were used to facilitate the detection of small amounts of breakdown products. […] (FIG. 1A) or 25° C. (FIG. 1B).
HPLC elution profiles were obtained as described for FIG. 1. […] (FIG. 2A) or 25° C. (FIG. 2B).
HPLC elution profiles were obtained as described for FIG. 1. […] (FIG. 3A) or 25° C. (FIG. 3B).

[4] = cited from earlier work; for solubility of melatonin in DMSO: room temperature (20 or 25° C.)
rat = conditions: oral; cited from earlier work
[5] = melatonin 10 mg/mL in 20% (w/w) aqueous glycofurol, 45 days at 25° C.
[6] = melatonin 10 mg/mL in 20% (w/w) glycofurol, 40% (w/w) DMSO in water, 45 days at 25° C.

Structure (SMILES): CC(=O)NCCc1c[nH]c2ccc(O)cc12 [N-acetylserotonin]
protective effect against oxidative damage, times as strong as that of melatonin [1]: 5 to 20 times

solubility [2]: > 10000 µg/mL
melatonin breakdown ([3]; 20% (w/w) glycofurol, 40% (w/w) DMSO in water, 45 days at 25° C.): no evidence of the melatonin breakdown
melatonin breakdown ([3]; 50% (w/w) DMSO, 45 days at 25° C.): no evidence of the melatonin breakdown
degradation peaks (8.1, 8.4 and 8.6 min) together, share of the recovered UV-absorbent material ([3]; 45 days, 10 mg/mL): 0.36%
melatonin peak at 6.0 min ([3]; melatonin 10 mg/mL in 20% (w/w) aqueous glycofurol, 45 days at 5° C.): 5871 absorption units
additional peak at 8.4 min not seen in the 5° C. sample [3, 5]: 8.314 absorption units
additional peak at 8.6 min not seen in the 5° C. sample [3, 5]: 5 absorption units
additional peak at […] not seen in the 5° C. sample [3, 5]: 7.973 absorption units
melatonin peak at 6.0 min [3, 5]: 5831 absorption units
melatonin peak at 6.0 min ([3]; melatonin 10 mg/mL in 20% (w/w) glycofurol, 40% (w/w) DMSO in water, 45 days at 5° C.): 6831 absorption units
additional peaks of UV-absorbent material [3, 6]: no additional peaks
melatonin peak at 6.0 min [3, 6]: 6851 absorption units
melatonin peak at 6.0 min ([3]; melatonin 10 mg/mL in 50% (w/w) aqueous DMSO, 45 days at 5° C.): 8771 absorption units
additional peaks ([3]; melatonin 10 mg/mL in 50% (w/w) aqueous DMSO, 45 days at 5° C. or 25° C.): No additional peaks
melatonin peak at 6.0 min ([3]; melatonin 10 mg/mL in 50% (w/w) aqueous DMSO, 45 days at 25° C.): 8771 absorption units
decline in the melatonin concentrations ([3]; solutions 1), 2) and 3), sealed tubes, 25° C., HPLC on days 0, 10, 17, 31 and 45): no significant decline
Structure (SMILES): COc1ccc2[nH]cc(CCNC(C)=O)c2c1 [melatonin, N-acetyl-5-methoxytryptamine]
solubility of melatonin in ethanol ([4]; 20° C., EC SCCS/1315/10, 2010): 182 g/L
solubility of melatonin in ethanol/water (40/60 v/v) mixture ([4]; 20° C.): 64 g/L
solubility of melatonin in water ([4]; 20° C.): approximately 2 g/L
solubility of melatonin in water ([4]; 50° C.): ~5 g/L
solubility of melatonin in DMSO ([4]; source MedChem): ≤ 200 mM
solubility of melatonin in DMSO ([4]; source abcam): ≤ 100 mM
solubility of melatonin in DMSO ([4]; source tocris): ≤ 50 mM

Structure (SMILES): CCO [ethanol]
LD50 (rat): 7.06 g/kg

Structure (SMILES): C[S+](C)[O-] [DMSO, dimethyl sulfoxide]
LD50 (rat): 14.5 g/kg
